Results published in patent publication US20190350944A1, “NEUROACTIVE STEROID SOLUTIONS AND THEIR METHODS OF USE” (Sage Therapeutics, Inc., priority 2015, published 2019).

Test: Degradation pathway for allopregnanolone in SBECD formulations
Format: physicochemical
Description: FIG. 1 summarizes the two major degradation pathways found for allopregnanolone in SBECD formulations.

For CC(=O)[C@H]1CC[C@H]2[C@@H]3CC[C@H]4C[C@H](O)CC[C@]4(C)[C@H]3CC[C@]12C [allopregnanolone, 3 alpha-hydroxy-5 alpha-pregnan-20-one], the major degradation pathway (pH of ~6 or less) was “epimerization of allopregnanolone to compound 1269” and the major degradation pathway (pH of ~6 or more) was “oxidation of allopregnanolone to compound 136”.
